In ChEMBL document CHEMBL3885861, “Open TG-GATES”:

Organism: Rattus norvegicus
Experiment: Open TG-GATES - Regimen: Daily Repeat
Assay type: toxicity, organism-based, Sprague-Dawley
Design: regimen Daily Repeat, gender Male, age 6 weeks
Conditions: in vivo, po, route gavage; for APTT / Bas / Eos / Fbg / Hb / Ht / Lym / MCH / MCHC / MCV / Mono / Neu / PT / Plat / RBC / Ret / WBC: tissue Blood; for KIDNEY_L / KIDNEY_R / KIDNEY_TOTAL: tissue Kidney; for LIVER: tissue Liver; for A/G / ALP / ALT / AST / BUN / CRE / Ca / Cl / DBIL / GLC / IP / K / LDH / Na / PL / RALB / TBIL / TC / TG / TP / gamma-GTP: tissue Plasma
[1] = 0 mg/kg, 72 h, dose level Control, time 3 day
[2] = 0 mg/kg, […], dose level Control, time 7 day
[3] = 0 mg/kg, […], dose level Control, time 14 day
[4] = 0 mg/kg, […], dose level Control, time 28 day
[5] = 30 mg/kg, 72 h, dose level Low, time 3 day
[6] = 30 mg/kg, […], dose level Low, time 7 day
[7] = 30 mg/kg, […], dose level Low, time 14 day
[8] = 30 mg/kg, […], dose level Low, time 28 day

## Brc1ccccc1 [BROMOBENZENE]
[1]
  TERMINAL_BW: 210.3 g
  APTT: 15.5 s
  Bas: 0%
  Eos: 1%
  Fbg: 264.4 mg/dL
  Hb: 13.1 g/dL
  Ht: 38.3%
  Lym: 79.8%
  MCH: 21.4 pg
  MCHC: 34.3%
  MCV: 62.4 fL
  Mono: 3.2%
  Neu: 15.6%
  PT: 12 s
  Plat: 116.4 x10_4/uL
  RBC: 613.6 x10_4/ul
  Ret: 7.8%
  WBC: 89.2 x10_2/uL
  KIDNEY_L: 0.9 g
  KIDNEY_R: 0.8 g
  KIDNEY_TOTAL: 1.7 g
  LIVER: 10 g
  A/G: 0.9
  ALP: 1625.4 IU/L
  ALT: 52.2 IU/L
  AST: 77.8 IU/L
  BUN: 14.8 mg/dL
  CRE: 0.2 mg/dL
  Ca: 10.2 mg/dL
  Cl: 104.8 meq/L
  DBIL: 0.012 mg/dL
  GLC: 187 mg/dL
  IP: 7.6 mg/dL
  K: 4 meq/L
  LDH: 63.6 IU/L
  Na: 141.8 meq/L
  PL: 142.6 mg/dL
  RALB: 2.6 g/dL
  TBIL: 0.04 mg/dL
  TC: 79 mg/dL
  TG: 101 mg/dL
  TP: 5.7 g/dL
  gamma-GTP: 1.2 IU/L
[2]
  TERMINAL_BW: 242.1 g
  APTT: 15.7 s
  Bas: 0.2%
  Eos: 1%
  Fbg: 283.4 mg/dL
  Hb: 13.4 g/dL
  Ht: 39%
  Lym: 78.4%
  MCH: 21.4 pg
  MCHC: 34.5%
  MCV: 61.9 fL
  Mono: 2.8%
  Neu: 18%
  PT: 12.3 s
  Plat: 115.5 x10_4/uL
  RBC: 630.4 x10_4/ul
  Ret: 5.8%
  WBC: 112.8 x10_2/uL
  KIDNEY_L: 1 g
  KIDNEY_R: 1 g
  KIDNEY_TOTAL: 2 g
  LIVER: 11 g
  A/G: 0.8
  ALP: 1737.2 IU/L
  ALT: 51 IU/L
  AST: 72.6 IU/L
  BUN: 14.8 mg/dL
  CRE: 0.2 mg/dL
  Ca: 11 mg/dL
  Cl: 107 meq/L
  DBIL: 0.012 mg/dL
  GLC: 191.2 mg/dL
  IP: 7 mg/dL
  K: 3.9 meq/L
  LDH: 97 IU/L
  Na: 143.8 meq/L
  PL: 145.8 mg/dL
  RALB: 2.7 g/dL
  TBIL: 0.044 mg/dL
  TC: 75.4 mg/dL
  TG: 90.2 mg/dL
  TP: 5.9 g/dL
  gamma-GTP: 1 IU/L
[3]
  TERMINAL_BW: 295 g
  APTT: 15.8 s
  Bas: 0%
  Eos: 0.8%
  Fbg: 320.2 mg/dL
  Hb: 13.8 g/dL
  Ht: 39.9%
  Lym: 77%
  MCH: 20.8 pg
  MCHC: 34.7%
  MCV: 60 fL
  Mono: 2.4%
  Neu: 19%
  PT: 12 s
  Plat: 113.5 x10_4/uL
  RBC: 665.6 x10_4/ul
  Ret: 4.4%
  WBC: 89.1 x10_2/uL
  KIDNEY_L: 1.2 g
  KIDNEY_R: 1.1 g
  KIDNEY_TOTAL: 2.3 g
  LIVER: 12.9 g
  A/G: 0.8
  ALP: 1619.6 IU/L
  ALT: 39.2 IU/L
  AST: 67.8 IU/L
  BUN: 15.8 mg/dL
  CRE: 0.2 mg/dL
  Ca: 10.8 mg/dL
  Cl: 106.6 meq/L
  DBIL: 0 mg/dL
  GLC: 191.6 mg/dL
  IP: 6.8 mg/dL
  K: 3.9 meq/L
  LDH: 64.2 IU/L
  Na: 143.2 meq/L
  PL: 153 mg/dL
  RALB: 2.7 g/dL
  TBIL: 0.032 mg/dL
  TC: 75.6 mg/dL
  TG: 95 mg/dL
  TP: 5.9 g/dL
  gamma-GTP: 1 IU/L
[4]
  TERMINAL_BW: 384.4 g
  APTT: 17.6 s
  Bas: 0%
  Eos: 1.6%
  Fbg: 301 mg/dL
  Hb: 14.9 g/dL
  Ht: 42.4%
  Lym: 79.4%
  MCH: 19.4 pg
  MCHC: 35.1%
  MCV: 55.4 fL
  Mono: 2.6%
  Neu: 15.4%
  PT: 12.5 s
  Plat: 103.9 x10_4/uL
  RBC: 765 x10_4/ul
  Ret: 2.4%
  WBC: 110.4 x10_2/uL
  KIDNEY_L: 1.3 g
  KIDNEY_R: 1.3 g
  KIDNEY_TOTAL: 2.6 g
  LIVER: 16.6 g
  A/G: 0.8
  ALP: 1341.6 IU/L
  ALT: 45.8 IU/L
  AST: 64 IU/L
  BUN: 16 mg/dL
  CRE: 0.2 mg/dL
  Ca: 10.7 mg/dL
  Cl: 104 meq/L
  DBIL: 0.018 mg/dL
  GLC: 186.6 mg/dL
  IP: 6 mg/dL
  K: 3.8 meq/L
  LDH: 71.4 IU/L
  Na: 142.2 meq/L
  PL: 157.8 mg/dL
  RALB: 2.9 g/dL
  TBIL: 0.036 mg/dL
  TC: 80.2 mg/dL
  TG: 158.4 mg/dL
  TP: 6.5 g/dL
  gamma-GTP: 1 IU/L
[5]
  TERMINAL_BW: 211.4 g
  APTT: 16.2 s
  Bas: 0%
  Eos: 1%
  Fbg: 274.2 mg/dL
  Hb: 13.2 g/dL
  Ht: 38.9%
  Lym: 76.6%
  MCH: 21.2 pg
  MCHC: 34%
  MCV: 62.4 fL
  Mono: 4.2%
  Neu: 17.8%
  PT: 12 s
  Plat: 113.4 x10_4/uL
  RBC: 624.8 x10_4/ul
  Ret: 7.4%
  WBC: 117.5 x10_2/uL
  KIDNEY_L: 0.9 g
  KIDNEY_R: 0.9 g
  KIDNEY_TOTAL: 1.8 g
  LIVER: 10.6 g
  A/G: 0.9
  ALP: 1588.2 IU/L
  ALT: 54.2 IU/L
  AST: 70.2 IU/L
  BUN: 13.8 mg/dL
  CRE: 0.2 mg/dL
  Ca: 10.4 mg/dL
  Cl: 105.2 meq/L
  DBIL: 0.012 mg/dL
  GLC: 182 mg/dL
  IP: 7.3 mg/dL
  K: 4.1 meq/L
  LDH: 77 IU/L
  Na: 142 meq/L
  PL: 154 mg/dL
  RALB: 2.6 g/dL
  TBIL: 0.05 mg/dL
  TC: 84.6 mg/dL
  TG: 76 mg/dL
  TP: 5.6 g/dL
  gamma-GTP: 1.2 IU/L
[6]
  TERMINAL_BW: 250.4 g
  APTT: 16.1 s
  Bas: 0%
  Eos: 1%
  Fbg: 272.4 mg/dL
  Hb: 12.9 g/dL
  Ht: 37.6%
  Lym: 78%
  MCH: 21.3 pg
  MCHC: 34.4%
  MCV: 62 fL
  Mono: 2.6%
  Neu: 18%
  PT: 12.7 s
  Plat: 117.9 x10_4/uL
  RBC: 606.8 x10_4/ul
  Ret: 6.2%
  WBC: 100.6 x10_2/uL
  KIDNEY_L: 1 g
  KIDNEY_R: 1 g
  KIDNEY_TOTAL: 2 g
  LIVER: 12.3 g
  A/G: 0.9
  ALP: 1766.2 IU/L
  ALT: 40.6 IU/L
  AST: 71 IU/L
  BUN: 14.4 mg/dL
  CRE: 0.2 mg/dL
  Ca: 11.1 mg/dL
  Cl: 105.2 meq/L
  DBIL: 0.01 mg/dL
  GLC: 195 mg/dL
  IP: 7 mg/dL
  K: 3.9 meq/L
  LDH: 109 IU/L
  Na: 143.4 meq/L
  PL: 143 mg/dL
  RALB: 2.7 g/dL
  TBIL: 0.042 mg/dL
  TC: 74.6 mg/dL
  TG: 84.4 mg/dL
  TP: 5.8 g/dL
  gamma-GTP: 1.4 IU/L
[7]
  TERMINAL_BW: 301.3 g
  APTT: 16 s
  Bas: 0%
  Eos: 0.8%
  Fbg: 316.2 mg/dL
  Hb: 14.2 g/dL
  Ht: 41.2%
  Lym: 81.6%
  MCH: 20.5 pg
  MCHC: 34.5%
  MCV: 59.2 fL
  Mono: 2.6%
  Neu: 14.4%
  PT: 11.7 s
  Plat: 116 x10_4/uL
  RBC: 696.6 x10_4/ul
  Ret: 4.2%
  WBC: 87.7 x10_2/uL
  KIDNEY_L: 1.2 g
  KIDNEY_R: 1.2 g
  KIDNEY_TOTAL: 2.4 g
  LIVER: 14.5 g
  A/G: 0.8
  ALP: 1573.2 IU/L
  ALT: 40 IU/L
  AST: 65 IU/L
  BUN: 15.2 mg/dL
  CRE: 0.2 mg/dL
  Ca: 11 mg/dL
  Cl: 105.6 meq/L
  DBIL: 0.01 mg/dL
  GLC: 191.6 mg/dL
  IP: 6.8 mg/dL
  K: 4.1 meq/L
  LDH: 84.8 IU/L
  Na: 143 meq/L
  PL: 158.2 mg/dL
  RALB: 2.8 g/dL
  TBIL: 0.038 mg/dL
  TC: 74.2 mg/dL
  TG: 159.4 mg/dL
  TP: 6.2 g/dL
  gamma-GTP: 0.8 IU/L
[8]
  TERMINAL_BW: 378.5 g
  APTT: 16.4 s
  Bas: 0.2%
  Eos: 1.2%
  Fbg: 305.8 mg/dL
  Hb: 15 g/dL
  Ht: 42.8%
  Lym: 75.6%
  MCH: 19.7 pg
  MCHC: 35%
  MCV: 56.2 fL
  Mono: 3%
  Neu: 19%
  PT: 12.6 s
  Plat: 103.7 x10_4/uL
  RBC: 762.2 x10_4/ul
  Ret: 2.7%
  WBC: 101.5 x10_2/uL
  KIDNEY_L: 1.3 g
  KIDNEY_R: 1.3 g
  KIDNEY_TOTAL: 2.7 g
  LIVER: 16.3 g
  A/G: 0.8
  ALP: 1032.4 IU/L
  ALT: 36 IU/L
  AST: 59.8 IU/L
  BUN: 15.8 mg/dL
  CRE: 0.2 mg/dL
  Ca: 10.7 mg/dL
  Cl: 105.8 meq/L
  DBIL: 0.016 mg/dL
  GLC: 190.2 mg/dL
  IP: 6 mg/dL
  K: 3.8 meq/L
  LDH: 58.6 IU/L
  Na: 142.8 meq/L
  PL: 152.2 mg/dL
  RALB: 2.9 g/dL
  TBIL: 0.034 mg/dL
  TC: 80.6 mg/dL
  TG: 141.4 mg/dL
  TP: 6.5 g/dL
  gamma-GTP: 1 IU/L
